Source: ChEMBL document CHEMBL1122611, “Synthesis and in vitro biological evaluation of N-[(5-amino-1-beta-D-ribofuranosyl-1H-imidazol-4-yl)carbonyl]-3- (hydroxynitrosamino)-L-alanine (L-alanosine AICO ribonucleoside)” (1984)

Tests used:
[1] = test system: HL-60; assay: In vitro evaluation of inhibitory activity of HL60 human promyelocytic tumor cell; format: functional; conditions: read-out: ED50 (the source's name)
[2] = Evaluation of inhibitory activity against adenylosuccinate synthetase
[3] = Evaluation of inhibitory activity of adenylosuccinate synthetase

SMILES | EC50 [1] [µM] | ED50 [2] [µM] | ED50 [3] [µM]
N[C@@H](CN(O)N=O)C(=O)O [LALANOSINE] | 2 | 7000 | 
Nc1c(C(=O)NC(CN(O)N=O)C(=O)O)ncn1[C@@H]1O[C@H](CO)[C@@H](O)[C@H]1O (stereo not given in full) | > 100 | > 1000 | 0.3
